The values that follow come from paper PMC8449414, “Rational design of ASCT2 inhibitors using an integrated experimental-computational approach” (Proceedings of the National Academy of Sciences of the …, 2021).

In one experiment the target is T1, rASCT2 (Rattus norvegicus, UniProt D3ZJ25).
T1 construct: expressed in transfected cells; host or cells: HEK293 (ATCC CRL-11268), transient transfection
T1 sequence (D3ZJ25 1-555): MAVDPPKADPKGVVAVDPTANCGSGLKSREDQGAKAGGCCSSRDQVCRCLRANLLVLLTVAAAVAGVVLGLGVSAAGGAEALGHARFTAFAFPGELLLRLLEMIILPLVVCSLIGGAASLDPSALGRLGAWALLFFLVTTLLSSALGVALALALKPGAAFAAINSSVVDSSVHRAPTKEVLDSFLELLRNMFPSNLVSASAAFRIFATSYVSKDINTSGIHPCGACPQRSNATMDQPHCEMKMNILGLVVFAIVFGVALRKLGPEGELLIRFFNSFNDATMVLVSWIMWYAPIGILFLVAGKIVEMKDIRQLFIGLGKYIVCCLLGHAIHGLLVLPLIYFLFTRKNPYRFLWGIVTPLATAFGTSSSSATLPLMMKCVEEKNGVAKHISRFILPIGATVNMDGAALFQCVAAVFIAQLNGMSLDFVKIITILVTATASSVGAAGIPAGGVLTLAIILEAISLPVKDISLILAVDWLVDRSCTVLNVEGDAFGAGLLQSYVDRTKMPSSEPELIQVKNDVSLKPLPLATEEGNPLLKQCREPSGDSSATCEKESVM
Put plainly: Electrophysiology: inhibition of leak anion current in transfected HEK293 cells. In kind it is cell-based. Particulars: HEK293 cells, 0 mV, 130 mM NaSCN internal, 140 mM NaCl external, No current = no inhibition of anion leak current up to highest concentration tested (§ 20-50, || 100-400, # 1500-2500 µM); for Ki: read-out: Binding affinity Ki (apparent Ki). The protocol: (§1) Cell culture and transfection
(§2) Human embryonic kidney 293 (HEK293, ATCC CRL -11268) cells were cultured in DMEM media supplemented with 10% (v/v) fetal bovine serum (FBS), 2 mM glutamine, 1% penicillin streptomycin solution, 1 mM sodium pyruvate and non -essential amino acids. Cells were maintained at 370C in a fully humidified atmosphere containing 5% CO2. rASCT2, hASCT2, hASCT1, EAAT1, EAAT2, EAAT3, EAAT5 and YFP complementary DNAs were each used to transiently transfect HEK293 using POLYPLUS Jet-prime transfection reagent. Cells were analyzed using electrophysiological techniques 24-40 hours after transfection.
(§3) Electrophysiological techniques
(§4) Electrophysiological experiments were performed as described previously 1,2. Stock solutions of inhibitor was prepared in dimethyl sulfoxide (DMSO) up to 100 mM.
(§5) Dilutions to working concentrations were made using external buffer. The highest

The target of another experiment is T2, hASCT2 (Homo sapiens, UniProt Q15758).
T2 construct: expressed in transfected cells; host or cells: HEK293 (ATCC CRL-11268), transient transfection
T2 sequence (Q15758 1-541): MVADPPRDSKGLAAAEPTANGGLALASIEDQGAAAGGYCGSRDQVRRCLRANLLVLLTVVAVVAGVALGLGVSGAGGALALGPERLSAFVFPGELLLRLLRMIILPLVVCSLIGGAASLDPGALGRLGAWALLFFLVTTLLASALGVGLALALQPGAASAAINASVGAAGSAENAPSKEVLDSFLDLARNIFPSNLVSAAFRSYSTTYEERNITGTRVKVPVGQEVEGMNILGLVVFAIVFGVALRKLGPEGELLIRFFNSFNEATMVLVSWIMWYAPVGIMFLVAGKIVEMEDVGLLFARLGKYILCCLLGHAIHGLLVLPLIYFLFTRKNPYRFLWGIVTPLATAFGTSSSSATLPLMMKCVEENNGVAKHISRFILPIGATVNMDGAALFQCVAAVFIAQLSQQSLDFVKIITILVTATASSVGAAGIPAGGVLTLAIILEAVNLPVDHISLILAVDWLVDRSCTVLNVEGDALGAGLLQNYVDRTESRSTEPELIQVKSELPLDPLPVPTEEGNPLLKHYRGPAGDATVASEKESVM
The experiment is described as above. In kind it is cell-based. Particulars: for Binding affinity Ki (apparent Ki) / Ki: HEK293 cells, 0 mV, 130 mM NaSCN internal, 140 mM NaCl external, No current = no inhibition of anion leak current up to highest concentration tested (§ 20-50, || 100-400, # 1500-2500 µM); for Ki: read-out: Binding affinity Ki (apparent Ki); for activity (in words, structure activity relationship): ASCT2, species not given; for selectivity for hASCT2 over rEAAT1: ratio of Ki, hASCT2 versus rEAAT1. The protocol: as §1, §2, §3, §4, §5

The structures appear in SMILES notation. Values joined by “and” are separate entries in the source; they are usually repeats but may differ in a detail not shown here. Equal entries are not always repeated.

On to `O=C(O[C@@H]1CN[C@H](C(=O)O)C1)c1ccc(OCc2ccccc2)cc1` [ERA-31], for which, on rASCT2, the Ki worked out at 8.17 ± 1.05 µM. Moreover, at hASCT2, the “Binding affinity Ki (apparent Ki)” value is “No current”.
Regarding `O=C(O[C@H]1CN[C@H](C(=O)O)C1)c1ccc(C(=O)c2ccccc2)cc1` [ERA-35], the values for the Ki on rASCT2 and on hASCT2 were 121 ± 29.9 µM and > 500 µM, respectively.
For the compound `O=C(O[C@@H]1CN[C@H](C(=O)O)C1)C(c1ccccc1)c1ccccc1` [ERA-29], the “Binding affinity Ki (apparent Ki)” value at rASCT2 is listed as “No current”. Further, on hASCT2, the “activity (in words, structure activity relationship)” value is “no activity” and the “Binding affinity Ki (apparent Ki)” value is “No current”.
As for `O=C(O[C@@H]1CN[C@H](C(=O)O)C1)c1ccccc1-c1ccccc1` [ERA-3], the “Binding affinity Ki (apparent Ki)” value on rASCT2 is reported as “No current”. Moreover, on hASCT2, the “activity (in words, structure activity relationship)” value is “inactive” and the “Binding affinity Ki (apparent Ki)” value was “No current”.
On to `O=C(O[C@@H]1CN[C@H](C(=O)O)C1)c1ccc(C(O)c2ccccc2)cc1` (some centres unmarked) [ERA-9], for which, at rASCT2, the Ki amounted to 18.8 ± 4.97 µM. Besides, on hASCT2, the Ki was 5.65 µM and 5.7 µM; the “selectivity for hASCT2 over rEAAT1” value was “sevenfold”.
Consider `O=C(O[C@@H]1CN[C@H](C(=O)O)C1)c1ccc(-c2ccc(C(F)(F)F)cc2)cc1` [ERA-5], for which the Ki on rASCT2 was 0.27 ± 0.05 µM; on hASCT2, 1.05 ± 0.21 µM.
The like results for `N[C@@H](COC(=O)c1ccccc1)C(=O)O` [ERA-25] were, in that order, 290 ± 16.5 µM and 186 ± 17.2 µM.
The like results for `Cc1ccccc1-c1ccc(C(=O)O[C@@H]2CN[C@H](C(=O)O)C2)cc1` [ERA-6] were, in that order, 0.97 ± 0.08 µM and 1.12 ± 0.11 µM.
On the same counts, the results for `O=C(O[C@@H]1CN[C@H](C(=O)O)C1)c1ccc(Oc2ccccc2)cc1` [ERA-16] are 3.68 ± 0.73 µM and 4.17 ± 0.46 µM.
Take `N[C@@H](COC(=O)c1cccnc1)C(=O)O` [ERA-28]: the figures for the Ki at rASCT2 and at hASCT2 were 266 ± 42.7 µM and 690 ± 54.2 µM, respectively.
The like results for `O=C(O[C@@H]1CN[C@H](C(=O)O)C1)c1ccc(-c2ccc(F)cc2)cc1` [ERA-4] were, in that order, 0.65 ± 0.04 µM and 0.74 ± 0.09 µM.
As for `O=C(Nc1ccc(C(=O)O[C@@H]2CN[C@H](C(=O)O)C2)cc1)c1ccc(C(F)(F)F)cc1` [ERA-11], the Ki at rASCT2 was determined as 3.37 ± 0.41 µM. Also, at hASCT2, the Ki came to 2.94 ± 0.93 µM and the “selectivity for hASCT2 over rEAAT1” value is reported as “threefold”.
As for `N[C@@H](COC(=O)c1ccc(NC(=O)c2ccccc2)cc1)C(=O)O` [ERA-21], the Ki at rASCT2 was found to be 4.33 ± 1.3 µM; on hASCT2 it was 22.6 ± 3.66 µM.
For the compound `O=C(O[C@@H]1CN[C@H](C(=O)O)C1)c1ccc(-c2ccccc2)cc1` [Lc-BPE, L-cis hydroxyproline biphenyl ester], the Ki on rASCT2 amounted to 0.74 ± 0.11 µM; at hASCT2, 0.86 ± 0.11 µM.
